Measured values taken from patent US6011019A, “Vasoactive effects and free radical generation by β-amyloid peptides” (University of South Florida, priority 1996, dated 2000).

Columns and labels:
[1] = system: endothelial cells in aortic rings; experiment: Electron microscopy of endothelial cell layer in aortic rings; set-up: species or system rat
Procedure: As shown in FIGS. 14A-F, […], or in presence of β-amyloid (10^-6 M), or SOD (150 units/ml) and β-amyloid.The tissue samples were kept in glutaraldehyde solution at 4° C. until processed and then rinsed with cacodylate buffer. The tissues were postfixed with 1% buffered osmium tetroxide, dehydrated with graded ethanol solutions, and embedded in a mixture of eponaraldite. Ultrathin sections were stained with uranyl acetate and lead citrate and viewed on model 7000 Hitachi transmission electron microscope. The inset bar indicates one micron. The experiment was repeated three or more times with blood vessels from different animals.

blood vessel (rat aorta) = experiment: Vascular response of blood vessel rings in tissue bath (basal tension, β-amyloid induced vasoactivity)
Procedure: Freshly excised rat and porcine blood vessels were placed in Kreb's bicarbonate buffer equilibrated with 5% CO2 in O2. The buffer composition consisted of 118.2 mM NaCl, 4.7 mM KCl, 1.2 mM MgSO4, 2.5 mM CaCl2, 1.2 mM NaH2 PO4, 23 mM NaHCO3 and 11.2 mM glucose. After cleaning the vessels free of fat and other adhering tissues, the vessels were cut into ring segments of approximately 3 mm in length. Care was taken not to damage the intimal surface.
The endothelium was removed from some preparations by rubbing the inside of the lumen with a metal spatula for six to ten seconds and subsequent rinsing with buffer. The removal of endothelium was confirmed by testing for relaxation to acetylcholine [Furchgott and Zawadzki, 1980].
The blood vessel preparations were mounted on stainless steel hooks attached to a force-displacement transducer and equilibrated under the optimum tension of 1.3 g for a period of sixty minutes in a tissue bath (10 ml) containing oxygenated (5% CO2 in O2) Kreb's buffer at 37° C. The buffer was changed every fifteen minutes. After equilibration for sixty minutes the viability of the blood vessel with intact endothelium was established by constricting the blood vessel using phenylephrine ([…]). This dose of phenylephrine elicited 80% of the maximum response. […] The vessel preparations were washed for fifteen minutes before various manipulations as described below.
Referring to FIG. 10, the arrow indicates the addition of 10^-6 M β-amyloid. The control tissue received no β-amyloid. SOD (150 units/ml) was added thirty seconds prior to the addition of β-amyloid. The maximum contraction induced by β-amyloid was 1.14±0.13 (g) and in presence of SOD the contraction was reduced to 0.04±0.02 (g). Values represent the mean±SEM of five separate experiments.

β-amyloid was tested, and the “β-amyloid concentration required to induce the morphological changes” value ([1]; incubation periods of fifteen minutes) was > 5×10^-7 M, the “endothelial cell morphology after incubation” value ([1]; β-amyloid 10^-6 M, 37° C., thirty minutes) was “induced significant damage to the endothelial cells” and the “maximum contraction induced by β-amyloid” value (blood vessel (rat aorta); 10^-6 M β-amyloid, mean±SEM of five experiments) was 1.14 ± 0.13 g. The “duration of contraction/relaxation activity” value (blood vessel (rat aorta); after β-amyloid addition) was “fifteen to twenty minutes”, the “initial detectable change: minor relaxation” value (blood vessel (rat aorta); after β-amyloid addition) was under 0.1 g and the onset of vasoactivity (blood vessel (rat aorta); after β-amyloid addition) was “within thirty seconds”. The “constriction of the blood vessel” value (blood vessel (rat aorta); increasing concentration of β-amyloid, basal tension, intact endothelium) was “constricted the blood vessel in a concentration-dependent manner” and the “endothelium dependence of the constricting effect” value (blood vessel (rat aorta); vessels with and without endothelium) was “only occurred in the presence of endothelium”.
